Laboratory results taken from patent US20240182415A1, “ACETAL, KETAL, AND […] OF PSILOCIN, PROCESSES FOR THE PREPARATION THEREOF, AND METHODS OF USE” (Invyxis, Inc., priority 2022, published 2024).
Read-outs that look alike come from different tables or passages of the source.

Key:
[1] = Single-dose oral pharmacokinetics in mice (plasma and brain); type: in vivo, C57BL6 mice; conditions: PO 3.0 mg/kg
Protocol: The single-dose pharmacokinetics of test compounds were analyzed relative to control (psilocin) in C57BL6 mice via oral (PO) administration. Test compound was dissolved in DMSO and transferred to a 15-mL tube, followed by addition of Tween-80, PEG-400, and water to final volume. The resulting formulation (0.3 mg/mL compound, in DMSO (1%), Tween-80 (5%), and PEG-400 (25%) in water (69%)) was vortexed for 2 min. and mixed by inversion.
Male C57BL6 mice (3× per compound, (at a weight ˜20 g)) received a single dose (oral) of test compound at 3.0 mg/kg. Blood samples were collected pre-dose and at 0.083, 0.25, 0.5, 1, 2, 4, 8, 24-hour post-dose to yield approximately 20 μL of pooled plasma (3× mice) per time point. Brain tissues were collected at 2- and 8-hr post-dose. Brain was flushed with saline solution using a perfusion needle through the ascending aorta of the ventricle to remove any remaining blood prior to collection. Plasma and brain homogenate samples were stored at −80° C. prior to extraction for LC-MS/MS analysis.
Samples were analyzed by LC-MS/MS to quantify the amounts of test compound and control (psilocin). The calculation of the pharmacokinetic (PK) parameters (AUCt, AUCinf, Cmax, Tmax, T1/2, and Kel) can be performed using a non-compartmental analysis (trapezoidal method).

[2] = Compound stability, IP-One incubation; type: in vitro ADME; conditions: IP-One stimulation medium on CHO-K1 cells expressing 5-HT2A, 2 μM, 60 min vs T0, 37° C.
Protocol: IP-One incubation. CHO-K1 cells expressing recombinant Serotonin receptor 5-HT2A (Perkin Elmer, Waltham, MA), were seeded in 96-well plates (˜80,000 cells/well) and treated with 28 μL (per well) of stimulation medium (IP-One HTRF® kit) containing test compounds (2 μM) for 1 hr in a CO2 incubator (5%) at 37° C. The cell-treated medium from 3 wells were pooled together to provide 40 μL for LC-MS analysis. Aliquots for each compound were collected at time zero (To, 100% intact test compound) and 60-min. The incubated medium (40 μL) was quenched with 120 μL of acetonitrile containing 0.5 μM glyburide (IS), and the supernatant was collected by centrifugation (2500 rpm, 15 min.). LC-MS was performed using an Agilent MSD (electrospray in positive ionization) equipped with a Kinetic C18 reverse-column. The percent of test compound remaining is calculated using the ratio of the peak areas of intact test compound at 60 min. over T0. The percent of psilocin release is calculated by comparing the peak area of psilocin at 60 min. (for test compound) vs. peak area at T0 (2 μM psilocin). Results are summarized in Table 1, (rel to % parent detected; and/or % psilocin detected).

[3] = Compound stability in fasted state simulated gastric fluid (FaSSGF); type: in vitro ADME; conditions: 37° C., 60 min vs T0
Protocol: Fasted state simulated gastric fluid (FaSSGF). FaSSGF was prepared according to the manufacturer instructions (Biorelevant, UK). Test compounds (2 μL of 200 μM solution) were added to a 96-well plate containing 198 μL FaSSGF per well. The mixture was incubation in a thermomixer at 37° C. for 60 min. Sample aliquots were removed (40 μL, from T0 and 60 min.) and quenched with acetonitrile containing 0.5 μM glyburide (IS), and the supernatant collected by centrifugation (2500 rpm, 15 min.). LC-MS was performed using an Agilent MSD (electrospray in positive ionization) equipped with a Kinetic C18 reverse-column. The percent of test compound remaining was calculated using the ratio of the peak area of intact test compound at 60 min. over T0. The percent of psilocin release was calculated by comparing the peak area of psilocin at 60 min, (for test compound) vs. peak area at T0 (2 μM psilocin).

[4] = molecular target: human serotonin 5HT2A receptor (Homo sapiens, UniProt P28223); experiment: 5HT2A receptor radioligand displacement assay; conditions: displacement of [3H]-ketanserin or [3H]-LSD, 5HT2A membrane from HEK293
Chain of human serotonin 5HT2A receptor (P28223 whole entry): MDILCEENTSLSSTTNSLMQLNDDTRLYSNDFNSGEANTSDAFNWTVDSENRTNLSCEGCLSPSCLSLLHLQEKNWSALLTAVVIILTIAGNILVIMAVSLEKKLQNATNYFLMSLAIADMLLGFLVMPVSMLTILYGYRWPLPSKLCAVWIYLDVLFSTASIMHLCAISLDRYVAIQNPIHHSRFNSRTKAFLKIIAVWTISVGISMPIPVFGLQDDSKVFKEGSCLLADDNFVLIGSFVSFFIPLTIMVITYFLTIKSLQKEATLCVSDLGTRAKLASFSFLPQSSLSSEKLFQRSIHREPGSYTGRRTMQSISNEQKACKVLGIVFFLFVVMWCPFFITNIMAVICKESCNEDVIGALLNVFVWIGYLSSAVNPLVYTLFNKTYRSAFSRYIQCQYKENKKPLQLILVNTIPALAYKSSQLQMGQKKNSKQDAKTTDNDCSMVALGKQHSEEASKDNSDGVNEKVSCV

Compound	% parent compound [2] [%]	Displacement activity relative to psilocin [4]	other results
COC(C)Oc1cccc2[nH]cc(CCN(C)C)c12 (centres unmarked) [Test compound A, 2-(4-(1-methoxyethoxy)-1H-indol-3-yl)-N,N-dimethylethan-1-amine]			concentration at 2 h ([1]; male, C57BL6, mouse, brain, 2 h post-dose, parent compound, read-out: Parent PK [brain] 2 h): 0.6 ng/mL; AUC ([1]; male, C57BL6, mouse, plasma, parent compound, read-out: Parent PK AUC): 51.4 ng·h/mL; Cmax ([1]; male, C57BL6, mouse, plasma, parent compound, read-out: Parent PK Cmax): 21.6 ng/mL
COC(C)Oc1cccc2[nH]cc(CCN(C)C)c12 (centres unmarked) [drawing 87]	88.8		
CN(C)CCc1c[nH]c2cccc(O)c12 [Psilocin, 4-hydroxy-N,N-dimethyltryptamine]	87.4	++	mean brain/plasma (B/P) ratio ([1]; 2-h post-dose, with estimated plasma concentration of 5 ng/mL): 11.2±4.3; psilocin in the brain at 8-h post-dose ([1]; 8-h post-dose): No psilocin in the brain was detected; Parent PK [brain] 2 h ([1]; brain, 2 h post-dose, parent compound): 54 ng/mL; Cmax ([1]; male, C57BL6, mouse, plasma, estimated, based on other pharmacokinetic data, read-out: Parent PK Cmax (estimated psilocin plasma concentration)): 5 ng/mL; % parent compound [3]: 72.2%
COCCOCn1cc(CCN(C)C)c2c(OCOC)cccc21 [drawing 94]			% parent compound [3]: 20%
COCCOCn1cc(CCN(C)C)c2c(OCOC)cccc21 [drawing 99]		+	
CCOCOc1cccc2[nH]cc(CCN(C)C)c12 [drawing 96]		+++	
COC(C)n1cc(CCN(C)C)c2c(O)cccc21 (centres unmarked) [drawing 88]	82.5		
COC(C)Oc1cccc2[nH]cc(CCN(C)C)c12 (centres unmarked) [drawing 97]		++	
COCCOCn1cc(CCN(C)C)c2c(OCOC)cccc21 [drawing 89]	94.7		
CCOCOc1cccc2[nH]cc(CCN(C)C)c12 [drawing 86]	91.9		
CCOCOc1cccc2[nH]cc(CCN(C)C)c12 [drawing 91]			% parent compound [3]: 97%
COC(C)n1cc(CCN(C)C)c2c(O)cccc21 (centres unmarked) [drawing 98]		+	
